Assay results reported in patent US11173151B2, “Substituted triazole derivatives and uses thereof” (BAYER AKTIENGESELLSCHAFT, priority 2017, dated 2021).
pIC50: −log10 of the molar value. Where two headings read alike, the source gives them in different places.

What was measured:
human V1a receptor = biological target: T1, human V1a receptor (Homo sapiens, UniProt P37288); assay: Cellular in vitro assay for determining vasopressin receptor activity, V1a receptor cell line (CHO, aequorin luminescence); format: cell-based; settings: for pIC50: CHO cell line transfected with human V1a receptor, [Arg]-vasopressin at EC50 concentration, read-out: IC50 hV1a; for ratio IC50 hV2/hV1a: selectivity ratio IC50 hV2 / IC50 hV1a
T1 construct: expressed in transfected cells; host or cells: CHO K1 (ATCC), also stably transfected with a modified aequorin
T1 sequence (P37288 whole entry): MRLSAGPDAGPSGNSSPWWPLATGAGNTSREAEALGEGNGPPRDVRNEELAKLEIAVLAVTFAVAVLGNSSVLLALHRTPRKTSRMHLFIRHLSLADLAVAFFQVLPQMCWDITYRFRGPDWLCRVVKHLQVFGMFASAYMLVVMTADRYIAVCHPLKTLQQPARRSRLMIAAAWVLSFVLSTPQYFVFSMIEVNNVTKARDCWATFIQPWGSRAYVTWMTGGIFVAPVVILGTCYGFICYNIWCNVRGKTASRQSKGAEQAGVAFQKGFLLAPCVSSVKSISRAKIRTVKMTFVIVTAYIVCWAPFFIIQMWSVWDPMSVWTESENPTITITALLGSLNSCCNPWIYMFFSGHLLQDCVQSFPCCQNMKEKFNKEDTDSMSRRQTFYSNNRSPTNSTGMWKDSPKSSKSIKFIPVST
How it was run: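 CHO K1/aequorin cells, coelenterazine 5 μg/ml o/n; cpd 10 min; [Arg]-vasopressin at EC50; luminescence read immediately; IC50.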

human V2 receptor = biological target: T2, human V2 receptor (Homo sapiens, UniProt P30518); assay: Cellular in vitro assay for determining vasopressin receptor activity, V2 receptor cell line (CHO, CRE-luciferase); format: cell-based; settings: CHO cell line transfected with human V2 receptor, [Arg8]-vasopressin at EC50 concentration, read-out: IC50 hV2
T2 construct: expressed in transfected cells; host or cells: CHO K1 (ATCC) expressing firefly luciferase under a CRE-responsive promoter
T2 sequence (P30518 whole entry): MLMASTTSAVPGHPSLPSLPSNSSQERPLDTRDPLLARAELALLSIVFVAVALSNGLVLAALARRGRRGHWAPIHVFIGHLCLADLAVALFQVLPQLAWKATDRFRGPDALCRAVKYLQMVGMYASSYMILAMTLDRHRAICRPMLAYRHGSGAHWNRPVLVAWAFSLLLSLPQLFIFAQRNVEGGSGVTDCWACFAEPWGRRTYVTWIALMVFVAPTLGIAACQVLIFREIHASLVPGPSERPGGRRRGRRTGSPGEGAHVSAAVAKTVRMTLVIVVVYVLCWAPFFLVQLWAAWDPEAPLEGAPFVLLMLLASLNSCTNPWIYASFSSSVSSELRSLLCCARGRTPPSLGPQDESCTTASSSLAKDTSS

For O=C(c1cccc(Cl)c1-n1cnc(Cn2nc(-c3ccc(Cl)cc3)n(C[C@H](O)C(F)(F)F)c2=O)n1)N1CCS(=O)(=O)CC1 [Example 385, 2-[(1-{2-Chloro-6-[(1,1-dioxidothiomorpholin-4-yl)carbonyl]phenyl}-1H-1,2,4-triazol-3-yl)methyl]-5-(4-chlorophenyl)-4-[(2S)-3,3,3-trifluoro-2-hydroxypropyl]-2,4-dihydro-3H-1,2,4-triazol-3-one], the pIC50 (human V1a receptor) was 6.36, the “ratio IC50 hV2/hV1a” value (human V1a receptor) was 22.0 and the pIC50 (human V2 receptor; 3 hours) was 5.02.

In the case of CN(CC1CC1)C(=O)c1cccc(Cl)c1-n1cnc(Cn2nc(-c3ccc(Cl)cc3)n(C[C@H](O)C(F)(F)F)c2=O)n1 [Example 387, 3-Chloro-2-[3-({3-(4-chlorophenyl)-5-oxo-4-[(2S)-3,3,3-trifluoro-2-hydroxypropyl]-4,5-dihydro-1H-1,2,4-triazol-1-yl}methyl)-1H-1,2,4-triazol-1-yl]-N-(cyclopropylmethyl)-N-methylbenzamide], the pIC50 (human V1a receptor) was 7.03, the “ratio IC50 hV2/hV1a” value (human V1a receptor) was 36.8 and the pIC50 (human V2 receptor; 3 hours) was 5.47.

For CC1(NC(=O)c2cccc(Cl)c2-n2cnc(Cn3nc(-c4ccc(Cl)cc4)n(C[C@H](O)C(F)(F)F)c3=O)n2)CC1 [Example 388, 3-Chloro-2-[3-({3-(4-chlorophenyl)-5-oxo-4-[(2S)-3,3,3-trifluoro-2-hydroxypropyl]-4,5-dihydro-1H-1,2,4-triazol-1-yl}methyl)-1H-1,2,4-triazol-1-yl]-N-(1-methylcyclopropyl)benzamide], the pIC50 (human V1a receptor) was 8.15, the “ratio IC50 hV2/hV1a” value (human V1a receptor) was 216.8 and the pIC50 (human V2 receptor; 3 hours) was 5.81.

NC(=O)[C@H]1CC(F)(F)CN1C(=O)c1cccc(Cl)c1-n1cnc(Cn2nc(-c3ccc(Cl)cc3)n(C[C@H](O)C(F)(F)F)c2=O)n1 [Example 391, 1-{3-Chloro-2-[3-({3-(4-chlorophenyl)-5-oxo-4-[(2S)-3,3,3-trifluoro-2-hydroxypropyl]-4,5-dihydro-1H-1,2,4-triazol-1-yl}methyl)-1H-1,2,4-triazol-1-yl]benzoyl}-4,4-difluoro-D-prolinamide] was tested, and the pIC50 (human V1a receptor) was 7.28, the “ratio IC50 hV2/hV1a” value (human V1a receptor) was 65.4 and the pIC50 (human V2 receptor; 3 hours) was 5.47.

In the case of O=C(NCCC(F)(F)F)c1cccc(Cl)c1-n1cnc(Cn2nc(-c3ccc(Cl)cc3)n(C[C@H](O)C(F)(F)F)c2=O)n1 [Example 392, 3-Chloro-2-[3-({3-(4-chlorophenyl)-5-oxo-4-[(2S)-3,3,3-trifluoro-2-hydroxypropyl]-4,5-dihydro-1H-1,2,4-triazol-1-yl}methyl)-1H-1,2,4-triazol-1-yl]-N-(3,3,3-trifluoropropyl)benzamide], the pIC50 (human V1a receptor) was 7.65, the “ratio IC50 hV2/hV1a” value (human V1a receptor) was 12.4 and the pIC50 (human V2 receptor; 3 hours) was 6.55.

In the case of O=C(NC1CC1)c1cccc(Cl)c1-n1cnc(Cn2nc(-c3ccc(Cl)cc3)n(C[C@@H](O)C(F)(F)F)c2=O)n1 [Example 393, 3-Chloro-2-[3-({3-(4-chlorophenyl)-5-oxo-4-[(2R)-3,3,3-trifluoro-2-hydroxypropyl]-4,5-dihydro-1H-1,2,4-triazol-1-yl}methyl)-1H-1,2,4-triazol-1-yl]-N-cyclopropylbenzamide], the pIC50 (human V1a receptor) was 7.78, the “ratio IC50 hV2/hV1a” value (human V1a receptor) was 369.7 and the pIC50 (human V2 receptor; 3 hours) was 5.21.

O=C(NCC1CC1)c1cccc(Cl)c1-n1cnc(Cn2nc(-c3ccc(Cl)cc3)n(C[C@@H](O)C(F)(F)F)c2=O)n1 [Example 394, 3-Chloro-2-[3-({3-(4-chlorophenyl)-5-oxo-4-[(2R)-3,3,3-trifluoro-2-hydroxypropyl]-4,5-dihydro-1H-1,2,4-triazol-1-yl}methyl)-1H-1,2,4-triazol-1-yl]-N-(cyclopropylmethyl)benzamide] was tested, and the pIC50 (human V1a receptor) was 6.53, the “ratio IC50 hV2/hV1a” value (human V1a receptor) was 14.9 and the pIC50 (human V2 receptor; 3 hours) was 5.36.

With NC(=O)[C@@H]1CC(F)(F)CN1C(=O)c1cccc(Cl)c1-n1cnc(Cn2nc(-c3ccc(Cl)cc3)n(C[C@@H](O)C(F)(F)F)c2=O)n1 [Example 396, 1-{3-Chloro-2-[3-({3-(4-chlorophenyl)-5-oxo-4-[(2R)-3,3,3-trifluoro-2-hydroxypropyl]-4,5-dihydro-1H-1,2,4-triazol-1-yl}methyl)-1H-1,2,4-triazol-1-yl]benzoyl}-4,4-difluoro-L-prolinamide] the pIC50 (human V1a receptor) was 6.52, the “ratio IC50 hV2/hV1a” value (human V1a receptor) was 106.3 and the pIC50 (human V2 receptor; 3 hours) was 4.49.

In the case of O=C(c1cccc(Cl)c1-n1cnc(Cn2nc(-c3ccc(Cl)cc3)n(C[C@@H](O)C(F)(F)F)c2=O)n1)N1CCC(F)(F)C1 [Example 398, 2-[(1-{2-Chloro-6-[(3,3-difluoropyrrolidin-1-yl)carbonyl]phenyl}-1H-1,2,4-triazol-3-yl)methyl]-5-(4-chlorophenyl)-4-[(2R)-3,3,3-trifluoro-2-hydroxypropyl]-2,4-dihydro-3H-1,2,4-triazol-3-one], the pIC50 (human V1a receptor) was 6.36, the “ratio IC50 hV2/hV1a” value (human V1a receptor) was 50.0 and the pIC50 (human V2 receptor) was 4.66.

O=C(NC1CC(F)(F)C1)c1cccc(Cl)c1-n1cnc(Cn2nc(-c3ccc(Cl)cc3)n(C[C@@H](O)C(F)(F)F)c2=O)n1 [Example 399, 3-Chloro-2-[3-({3-(4-chlorophenyl)-5-oxo-4-[(2R)-3,3,3-trifluoro-2-hydroxypropyl]-4,5-dihydro-1H-1,2,4-triazol-1-yl}methyl)-1H-1,2,4-triazol-1-yl]-N-(3,3-difluorocyclobutyl)benzamide] was tested, and the pIC50 (human V1a receptor) was 6.72, the “ratio IC50 hV2/hV1a” value (human V1a receptor) was 16.6 and the pIC50 (human V2 receptor) was 5.50.

For O=C(c1cccc(Cl)c1-n1cnc(Cn2nc(-c3ccc(Cl)cc3)n(C[C@@H](O)C(F)(F)F)c2=O)n1)N1CCCCC1 [Example 401, 5-(4-Chlorophenyl)-2-({1-[2-chloro-6-(piperidin-1-ylcarbonyl)phenyl]-1H-1,2,4-triazol-3-yl}methyl)-4-[(2R)-3,3,3-trifluoro-2-hydroxypropyl]-2,4-dihydro-3H-1,2,4-triazol-3-one], the pIC50 (human V1a receptor) was 6.62, the “ratio IC50 hV2/hV1a” value (human V1a receptor) was 41.5 and the pIC50 (human V2 receptor) was 5.00.

For O=C(c1cccc(Cl)c1-n1cnc(Cn2nc(-c3ccc(Cl)cc3)n(C[C@@H](O)C(F)(F)F)c2=O)n1)N1CCOCC1 [Example 402, 2-({1-[2-Chloro-6-(morpholin-4-ylcarbonyl)phenyl]-1H-1,2,4-triazol-3-yl}methyl)-5-(4-chlorophenyl)-4-[(2R)-3,3,3-trifluoro-2-hydroxypropyl]-2,4-dihydro-3H-1,2,4-triazol-3-one], the pIC50 (human V1a receptor) was 6.36, the “ratio IC50 hV2/hV1a” value (human V1a receptor) was 73.6 and the pIC50 (human V2 receptor) was 4.49.

With O=C(NC1(C(F)(F)F)CC1)c1cccc(Cl)c1-n1cnc(Cn2nc(-c3ccc(Cl)cc3)n(C[C@@H](O)C(F)(F)F)c2=O)n1 [Example 403, 3-Chloro-2-[3-({3-(4-chlorophenyl)-5-oxo-4-[(2R)-3,3,3-trifluoro-2-hydroxypropyl]-4,5-dihydro-1H-1,2,4-triazol-1-yl}methyl)-1H-1,2,4-triazol-1-yl]-N-[1-(trifluoromethyl)cyclopropyl]benzamide] the pIC50 (human V1a receptor) was 7.13, the “ratio IC50 hV2/hV1a” value (human V1a receptor) was 77.9 and the pIC50 (human V2 receptor) was 5.24.

In the case of O=C(c1cccc(Cl)c1-n1cnc(Cn2nc(-c3ccc(Cl)cc3)n(C[C@@H](O)C(F)(F)F)c2=O)n1)N1CCC[C@@H]1C(F)(F)F [Example 404, 5-(4-Chlorophenyl)-2-{[1-(2-chloro-6-{[(2R)-2-(trifluoromethyl)pyrrolidin-1-yl]carbonyl}phenyl)-1H-1,2,4-triazol-3-yl]methyl}-4-[(2R)-3,3,3-trifluoro-2-hydroxypropyl]-2,4-dihydro-3H-1,2,4-triazol-3-one], the pIC50 (human V1a receptor) was 6.50, the “ratio IC50 hV2/hV1a” value (human V1a receptor) was 36.5 and the pIC50 (human V2 receptor) was 4.94.

CC1(NC(=O)c2cccc(Cl)c2-n2cnc(Cn3nc(-c4ccc(Cl)cc4)n(C[C@@H](O)C(F)(F)F)c3=O)n2)CC1 [Example 405, 3-Chloro-2-[3-({3-(4-chlorophenyl)-5-oxo-4-[(2R)-3,3,3-trifluoro-2-hydroxypropyl]-4,5-dihydro-1H-1,2,4-triazol-1-yl}methyl)-1H-1,2,4-triazol-1-yl]-N-(1-methylcyclopropyl)benzamide] was tested, and the pIC50 (human V1a receptor) was 7.78, the “ratio IC50 hV2/hV1a” value (human V1a receptor) was 615.2 and the pIC50 (human V2 receptor) was 4.99.

For CC1(C)COCCN1C(=O)c1cccc(Cl)c1-n1cnc(Cn2nc(-c3ccc(Cl)cc3)n(C[C@@H](O)C(F)(F)F)c2=O)n1 [Example 407, 2-[(1-{2-Chloro-6-[(3,3-dimethylmorpholin-4-yl)carbonyl]phenyl}-1H-1,2,4-triazol-3-yl)methyl]-5-(4-chlorophenyl)-4-[(2R)-3,3,3-trifluoro-2-hydroxypropyl]-2,4-dihydro-3H-1,2,4-triazol-3-one], the pIC50 (human V1a receptor) was 6.37, the “ratio IC50 hV2/hV1a” value (human V1a receptor) was 75.3 and the pIC50 (human V2 receptor) was 4.49.

In the case of NC(=O)[C@H]1CC(F)(F)CN1C(=O)c1cccc(Cl)c1-n1cnc(Cn2nc(-c3ccc(Cl)cc3)n(C[C@@H](O)C(F)(F)F)c2=O)n1 [Example 409, 1-{3-Chloro-2-[3-({3-(4-chlorophenyl)-5-oxo-4-[(2R)-3,3,3-trifluoro-2-hydroxypropyl]-4,5-dihydro-1H-1,2,4-triazol-1-yl}methyl)-1H-1,2,4-triazol-1-yl]benzoyl}-4,4-difluoro-D-prolinamide], the pIC50 (human V1a receptor) was 6.74, the “ratio IC50 hV2/hV1a” value (human V1a receptor) was 177.8 and the pIC50 (human V2 receptor) was 4.49.

With O=C(NCCC(F)(F)F)c1cccc(Cl)c1-n1cnc(Cn2nc(-c3ccc(Cl)cc3)n(C[C@@H](O)C(F)(F)F)c2=O)n1 [Example 410, 3-Chloro-2-[3-({3-(4-chlorophenyl)-5-oxo-4-[(2R)-3,3,3-trifluoro-2-hydroxypropyl]-4,5-dihydro-1H-1,2,4-triazol-1-yl}methyl)-1H-1,2,4-triazol-1-yl]-N-(3,3,3-trifluoropropyl)benzamide] the pIC50 (human V1a receptor) was 6.49, the “ratio IC50 hV2/hV1a” value (human V1a receptor) was 10.2 and the pIC50 (human V2 receptor) was 5.48.
